pIC50: −log10 of the molar value.
Each molecule was assayed against Endothelial lipase (EL) (Homo sapiens (Human), UniProt Q9Y5X9) (assay: Endothelial lipase (EL) enzymatic assay with fluorescent substrate A10070 in DMPG vesicles). Settings: not given.
Type: biochemical
Outline: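 Substrate A10070 sits in sonicated DMPG vesicles at 0.11 mole fraction. Lipase and compound preincubated 30 min, 37° C, in HEPES pH 8.0 buffer with CaCl2.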

Chain of Endothelial lipase (EL) (Q9Y5X9 21-500): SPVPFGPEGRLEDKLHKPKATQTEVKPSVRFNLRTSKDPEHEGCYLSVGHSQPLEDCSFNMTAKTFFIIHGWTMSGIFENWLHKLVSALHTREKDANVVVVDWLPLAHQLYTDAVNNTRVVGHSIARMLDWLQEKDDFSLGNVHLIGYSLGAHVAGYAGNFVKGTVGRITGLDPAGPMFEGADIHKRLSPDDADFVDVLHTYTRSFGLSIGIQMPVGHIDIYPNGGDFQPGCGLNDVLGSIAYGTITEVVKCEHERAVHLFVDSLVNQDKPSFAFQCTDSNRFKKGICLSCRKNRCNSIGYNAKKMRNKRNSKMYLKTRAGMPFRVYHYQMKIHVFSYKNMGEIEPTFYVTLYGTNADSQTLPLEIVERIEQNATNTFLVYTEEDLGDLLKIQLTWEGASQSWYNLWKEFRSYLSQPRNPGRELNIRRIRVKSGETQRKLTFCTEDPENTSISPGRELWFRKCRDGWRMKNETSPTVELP

pIC50 | Compound
8.70 | CC(C)OC(=O)Nc1ccc(-c2cc3sc(C(C(=O)NCC(=O)NC4CC4)S(=O)(=O)C4CC4)nc3cc2F)cc1 (centres unmarked) [Example 542, propan-2-yl N-(4-{2-[(cyclopropane-sulfonyl) ({[(cyclopropyl-carbamoyl)methyl]carbamoyl})methyl]-5-fluoro-1,3-benzothiazol-6-yl}phenyl) carbamate]
7.72 | COC(=O)N(C)c1cccc(-c2ccc3nc(C(C(=O)NCC(=O)NC4CC4)S(C)(=O)=O)sc3c2)c1 (centres unmarked) [Example 544, methyl N-{3-[2-({[(cyclopropyl-carbamoyl)methyl]carbamoyl} (methanesulfonyl)methyl)-1,3-benzothiazol-6-yl]phenyl}-N-methylcarbamate]
7.89 | COCCS(=O)(=O)C(C(=O)NCC(=O)NC1CC1)c1nc2ccc(-c3cccc(N(C)C(=O)OC)c3)cc2s1 (centres unmarked) [Example 545, methyl N-{3-[2-({[(cyclopropyl-carbamoyl)methyl]carbamoyl}(2-methoxyethane-sulfonyl)methyl)-1,3-benzothiazol-6-yl]phenyl}-N-methylcarbamate]
8.15 | COC(=O)N(C)c1cccc(-c2ccc3nc(C(C(=O)NCC(=O)NC4CC4)S(=O)(=O)CCC(F)(F)F)sc3c2)c1 (centres unmarked) [Example 546, methyl N-{3-[2-({[(cyclopropyl-carbamoyl)methyl]carbamoyl}(3,3,3-trifluoropropane-sulfonyl)methyl)-1,3-benzothiazol-6-yl]phenyl}-N-methylcarbamate]
8.10 | COC(=O)N(C)c1cccc(-c2cc3sc(C(C(=O)NCC(=O)NC4CC4)S(C)(=O)=O)nc3cc2F)c1 (centres unmarked) [Example 547, methyl N-{3-[2-({[(cyclopropyl-carbamoyl)methyl]carbamoyl} (methanesulfonyl)methyl)-5-fluoro-1,3-benzothiazol-6-yl]phenyl}-N-methylcarbamate]
7.92 | COCCS(=O)(=O)C(C(=O)NCC(=O)NC1CC1)c1nc2cc(F)c(-c3cccc(N(C)C(=O)OC)c3)cc2s1 (centres unmarked) [Example 548, methyl N-{3-[2-({[(cyclopropyl-carbamoyl)methyl]carbamoyl}(2-methoxyethane-sulfonyl)methyl)-5-fluoro-1,3-benzothiazol-6-yl]phenyl}-N-methylcarbamate]
8.40 | COCCS(=O)(=O)C(C(=O)NCC(=O)NC1CC1)c1nc2cc(F)c(-c3cccc(NC(=O)OCc4ccccc4)c3)cc2s1 (centres unmarked) [Example 549, benzyl N-{3-[2-({[(cyclopropyl-carbamoyl)methyl]carbamoyl}(2-methoxyethane-sulfonyl)methyl)-5-fluoro-1,3-benzothiazol-6-yl]phenyl} carbamate]
9.00 | CS(=O)(=O)C(C(=O)NCC(=O)NC1CC1)c1nc2cc(F)c(-c3cccc(NC(=O)OCc4ccccc4)c3)cc2s1 (centres unmarked) [Example 550, benzyl N-{3-[2-({[(cyclopropyl-carbamoyl)methyl]carbamoyl} (methanesulfonyl)methyl)-5-fluoro-1,3-benzothiazol-6-yl]phenyl} carbamate]
9.00 | COCCS(=O)(=O)C(C(=O)NCC(=O)NC1CC1)c1nc2cc(F)c(-c3ccc(NC(=O)OCc4ccccc4)nc3)cc2s1 (centres unmarked) [Example 551, benzyl N-{5-[2-({[(cyclopropyl-carbamoyl)methyl]carbamoyl}(2-methoxyethane-sulfonyl)methyl)-5-fluoro-1,3-benzothiazol-6-yl]pyridin-2-yl} carbamate]
9.00 | CS(=O)(=O)C(C(=O)NCC(=O)NC1CC1)c1nc2cc(F)c(-c3ccc(NC(=O)OCc4ccccc4)nc3)cc2s1 (centres unmarked) [Example 552, benzyl N-{5-[2-({[(cyclopropyl-carbamoyl)methyl]carbamoyl} (methanesulfonyl)methyl)-5-fluoro-1,3-benzothiazol-6-yl]pyridin-2-yl}carbamate]
9.00 | O=C(CNC(=O)C(c1nc2cc(F)c(-c3cccc(NC(=O)OCc4ccccc4)c3)cc2s1)S(=O)(=O)C1CC1)NC1CC1 (centres unmarked) [Example 555, benzyl N-(3-{2-[(cyclopropane-sulfonyl) ({[(cyclopropyl-carbamoyl)methyl]carbamoyl})methyl]-5-fluoro-1,3-benzothiazol-6-yl}phenyl) carbamate]
8.15 | CC(C)S(=O)(=O)C(C(=O)NCC(=O)NC1CC1)c1nc2cc(F)c(-c3cccc(NC(=O)OCc4ccccc4)c3)cc2s1 (centres unmarked) [Example 557, benzyl N-{3-[2-({[(cyclopropyl-carbamoyl)methyl]carbamoyl} (propane-2-sulfonyl)methyl)-5-fluoro-1,3-benzothiazol-6-yl]phenyl}carbamate]
8.70 | COCC(C)(C)NC(=O)c1ccc(-c2ccc3nc(C(C(=O)NCC(=O)NC4CC4)S(C)(=O)=O)sc3c2)cc1 (centres unmarked) [Example 560, 4-[2-({[(cyclopropyl-carbamoyl)methyl]carbamoyl} (methanesulfonyl)methyl)-1,3-benzothiazol-6-yl]-N-(1-methoxy-2-methylpropan-2-yl)benzamide]
8.52 | COCCS(=O)(=O)C(C(=O)NCC(=O)NC1CC1)c1nc2cc(F)c(-c3ccc(C(=O)N4CC(C)(O)C4)cc3)cc2s1 (centres unmarked) [Example 565, N-[(cyclopropyl-carbamoyl)methyl]-2-{5-fluoro-6-[4-(3-hydroxy-3-methylazetidine-1-carbonyl)phenyl]-1,3-benzothiazol-2-yl}-2-(2-methoxyethane-sulfonyl)acetamide]

The next lines start with the molecule.

Compound | pIC50
CC(C)OC(=O)Nc1ccc(-c2cc3sc(C(C(=O)NCC(=O)NC4CC4)S(=O)(=O)C(C)C)nc3cc2F)cc1 (centres unmarked) [Example 541, propan-2-yl N-{4-[2-({[(cyclopropyl-carbamoyl)methyl]carbamoyl} (propane-2-sulfonyl)methyl)-5-fluoro-1,3-benzothiazol-6-yl]phenyl} carbamate] | 8.70
O=C(CNC(=O)C(c1nc2cc(-c3ccc(NC(=O)OCc4ccccc4)nc3)c(F)cc2s1)S(=O)(=O)CCC(F)(F)F)NC1CC1 (centres unmarked) [Example 543, benzyl N-{5-[2-({[(cyclopropyl-carbamoyl)methyl]carbamoyl}(3,3,3-trifluoropropane-sulfonyl)methyl)-6-fluoro-1,3-benzothiazol-5-yl]pyridin-2-yl} carbamate] | 8.22
O=C(CNC(=O)C(c1nc2cc(F)c(-c3cccc(NC(=O)OCc4ccccc4)c3)cc2s1)S(=O)(=O)CCC(F)(F)F)NC1CC1 (centres unmarked) [Example 553, benzyl N-{3-[2-({[(cyclopropyl-carbamoyl)methyl]carbamoyl}(3,3,3-trifluoropropane-sulfonyl)methyl)-5-fluoro-1,3-benzothiazol-6-yl]phenyl} carbamate] | 9.00
O=C(CNC(=O)C(c1nc2cc(F)c(-c3ccc(NC(=O)OCc4ccccc4)nc3)cc2s1)S(=O)(=O)CCC(F)(F)F)NC1CC1 (centres unmarked) [Example 554, benzyl N-{5-[2-({[(cyclopropyl-carbamoyl)methyl]carbamoyl}(3,3,3-trifluoropropane-sulfonyl)methyl)-5-fluoro-1,3-benzothiazol-6-yl]pyridin-2-yl} carbamate] | 8.52
O=C(CNC(=O)C(c1nc2cc(F)c(-c3ccc(NC(=O)OCc4ccccc4)nc3)cc2s1)S(=O)(=O)C1CC1)NC1CC1 (centres unmarked) [Example 556, benzyl N-(5-{2-[(cyclopropane-sulfonyl) ({[(cyclopropyl-carbamoyl)methyl]carbamoyl)methyl]-5-fluoro-1,3-benzothiazol-6-yl}pyridin-2-yl) carbamate] | 7.82
COCCS(=O)(=O)C(C(=O)NCC(=O)NC1CC1)c1nc2ccc(-c3ccc(C(=O)NC(C)(C)COC)cc3)cc2s1 (centres unmarked) [Example 561, 4-[2-({[(cyclopropyl-carbamoyl)methyl]carbamoyl}(2-methoxyethane-sulfonyl)methyl)-1,3-benzothiazol-6-yl]-N-(1-methoxy-2-methylpropan-2-yl)benzamide] | 8.52
COCCS(=O)(=O)C(C(=O)NCC(=O)NC1CC1)c1nc2ccc(-c3ccc(C(=O)N4CCO[C@@H](C)C4)cc3)cc2s1 (stereo partly drawn) [Example 562, N-[(cyclopropyl-carbamoyl)methyl]-2-(2-methoxyethane-sulfonyl)-2-(6-{4-[(2S)-2-methyl-morpholine-4-carbonyl]phenyl}-1,3-benzothiazol-2-yl)acetamide] | 7.96
CC1(O)CN(C(=O)c2ccc(-c3cc4sc(C(C(=O)NCC(=O)NC5CC5)S(=O)(=O)CCC(F)(F)F)nc4cc3F)cc2)C1 (centres unmarked) [Example 564, N-[(cyclopropyl-carbamoyl)methyl]-2-{5-fluoro-6-[4-(3-hydroxy-3-methylazetidine-1-carbonyl)phenyl]-1,3-benzothiazol-2-yl}-2-[3,3,3-trifluoropropane-sulfonyl)acetamide] | 8.30
COCCS(=O)(=O)C(C(=O)NCC(=O)NC1CC1)c1nc2ccc(-c3ccc(C(=O)NCC(C)(C)OC)cc3)cc2s1 (centres unmarked) [Example 566, 4-[2-({[(cyclopropyl-carbamoyl)methyl]carbamoyl}(2-methoxyethane-sulfonyl)methyl)-1,3-benzothiazol-6-yl]-N-(2-methoxy-2-methylpropyl) benzamide] | 8.40
CC(C)(O)CNC(=O)c1ccc(-c2ccc3nc(C(C(=O)NCC(=O)NC4CC4)S(C)(=O)=O)sc3c2)cc1 (centres unmarked) [Example 567, 4-[2-({[(cyclopropyl-carbamoyl)methyl]carbamoyl} (methanesulfonyl)methyl)-1,3-benzothiazol-6-yl]-N-(2-hydroxy-2-methylpropyl) benzamide] | 8.40
COCCN(C)C(=O)c1ccc(-c2ccc3nc(C(C(=O)NCC(=O)NC4CC4)S(=O)(=O)CCOC)sc3c2)cc1F (centres unmarked) [Example 568, 4-[2-({[(cyclopropyl-carbamoyl)methyl]carbamoyl}(2-methoxyethane-sulfonyl)methyl)-1,3-benzothiazol-6-yl]-2-fluoro-N-(2-methoxyethyl)-N-methylbenzamide] | 8.05

Same assay, conditions: EL from conditioned media of HT-1080 cells; 30 min preincubation at 37° C.

pIC50 | Compound
8.26 | COCCS(=O)(=O)C(C(=O)NCC(=O)NC1CC1)c1nc2ccc(-c3ccc(C(=O)NCC(C)(C)COC)cc3)cc2s1 (centres unmarked) [Example 559, 4-(2-(2-((2-(Cyclopropylamino)-2-oxoethyl)amino)-1-((2-methoxyethyl)sulfonyl)-2-oxoethyl)benzo[d]thiazol-6-yl)-N-(3-methoxy-2,2-dimethylpropyl)benzamide]

— patent publication US10173991B2, “Sulfone amide linked benzothiazole inhibitors of endothelial lipase” (BRISTOL-MYERS SQUIBB COMPANY, priority 2014, dated 2019)
